Results: ChEMBL document CHEMBL1151286, “Nostocarboline: isolation and synthesis of a new cholinesterase inhibitor from Nostoc 78-12A” (J Nat Prod, 2005)
Where “and” joins values, the source holds several entries; their conditions need not be identical. Equal values may be shown once.

Target: Cholinesterase (Equus caballus, UniProt P81908)
Assay: Inhibition of horse serum BChE by Ellman's reaction

Chain of Cholinesterase (P81908 whole entry): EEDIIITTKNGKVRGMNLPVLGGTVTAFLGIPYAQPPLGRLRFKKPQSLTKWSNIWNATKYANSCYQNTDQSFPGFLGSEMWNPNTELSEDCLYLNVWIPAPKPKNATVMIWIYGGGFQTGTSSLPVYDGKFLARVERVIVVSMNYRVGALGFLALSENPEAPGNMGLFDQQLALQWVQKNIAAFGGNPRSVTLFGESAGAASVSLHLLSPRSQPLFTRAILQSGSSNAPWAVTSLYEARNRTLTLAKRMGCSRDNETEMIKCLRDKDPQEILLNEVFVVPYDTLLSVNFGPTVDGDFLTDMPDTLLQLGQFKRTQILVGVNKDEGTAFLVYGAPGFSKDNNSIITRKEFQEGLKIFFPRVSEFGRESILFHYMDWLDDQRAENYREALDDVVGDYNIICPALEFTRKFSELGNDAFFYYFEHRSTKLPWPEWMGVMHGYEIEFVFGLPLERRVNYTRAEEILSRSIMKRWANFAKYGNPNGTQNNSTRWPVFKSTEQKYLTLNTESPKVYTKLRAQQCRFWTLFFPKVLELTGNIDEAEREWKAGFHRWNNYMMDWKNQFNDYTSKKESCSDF

SMILES | IC50
C[n+]1ccc2c(c1)[nH]c1ccccc12 | 11.2 µM
C[n+]1ccc2c(c1)[nH]c1ccc(Cl)cc12 [NOSTOCARBOLINE] | 19.4 µM and 13.2 µM
